According to the supplement of paper PMC12463676, “Small-molecule dissolution of stress granules by redox modulation benefits ALS models” (Nature Chemical Biology, 2025):

Assays:
lipoamide = compound: NC(=O)CCCCC1CCSS1 [lipoamide]; assay: thermal stability z-score vs DMSO; higher = more thermally stabilized by treatment; settings: HeLa, lipoamide concentration 100 µM
Method: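 Cellular thermal proteome profiling in HeLa cells. Cells were treated with 100 µM lipoamide for 1 h, with or without 1 mM arsenate for a further 1 h, then heated to ten temperatures (37-66.3 °C), and soluble protein was quantified by TMT mass spectrometry relative to 0.1% DMSO controls. The thermal stability score (sum of log2 fold changes minus the abundance score) was transformed to a z-score; mean of n = 3 experiments.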

potassium arsenate = compound: O=[As]([O-])(O)O.[K+] [potassium arsenate]; assay: as above; settings: HeLa; arsenate concentration 1 mM
Method: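 Cellular thermal proteome profiling in HeLa cells treated with 1 mM arsenate for 1 h (DMSO pretreatment), heated to ten temperatures (37-66.3 °C). Soluble protein was quantified by TMT mass spectrometry relative to DMSO controls; the thermal stability score was transformed to a z-score; mean of n = 3 experiments.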

[1] = arsenate co-treatment: 1 mM arsenate 1 h
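Note: each temperature applied for 3 min, abundance score taken as mean log2 fold change at the two lowest temperatures, z-score obtained by mean subtraction and division by SD.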

Chain of UniProt Q2NL82 (Q2NL82 whole entry): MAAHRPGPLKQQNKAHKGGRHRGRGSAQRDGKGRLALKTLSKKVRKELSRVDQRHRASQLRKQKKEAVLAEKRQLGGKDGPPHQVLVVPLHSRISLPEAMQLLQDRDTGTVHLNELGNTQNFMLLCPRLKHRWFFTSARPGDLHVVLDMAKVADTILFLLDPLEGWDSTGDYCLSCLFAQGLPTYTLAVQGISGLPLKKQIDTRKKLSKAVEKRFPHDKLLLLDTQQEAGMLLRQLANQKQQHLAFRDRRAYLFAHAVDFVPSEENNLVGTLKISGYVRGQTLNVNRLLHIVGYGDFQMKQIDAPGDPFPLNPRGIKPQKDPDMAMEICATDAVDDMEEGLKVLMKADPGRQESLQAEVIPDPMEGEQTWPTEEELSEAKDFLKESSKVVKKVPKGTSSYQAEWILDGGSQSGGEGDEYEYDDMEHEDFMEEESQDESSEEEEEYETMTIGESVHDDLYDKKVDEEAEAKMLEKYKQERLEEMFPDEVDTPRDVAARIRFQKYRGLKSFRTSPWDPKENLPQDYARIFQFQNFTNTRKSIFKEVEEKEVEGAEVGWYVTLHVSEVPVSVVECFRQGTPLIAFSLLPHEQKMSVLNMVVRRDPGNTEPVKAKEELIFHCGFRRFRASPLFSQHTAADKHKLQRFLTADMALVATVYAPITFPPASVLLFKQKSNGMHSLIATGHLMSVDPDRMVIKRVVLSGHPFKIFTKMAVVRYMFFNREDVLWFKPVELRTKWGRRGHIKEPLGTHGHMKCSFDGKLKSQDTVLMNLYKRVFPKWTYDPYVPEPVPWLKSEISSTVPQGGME
Chain of UniProt O95865 (O95865 whole entry): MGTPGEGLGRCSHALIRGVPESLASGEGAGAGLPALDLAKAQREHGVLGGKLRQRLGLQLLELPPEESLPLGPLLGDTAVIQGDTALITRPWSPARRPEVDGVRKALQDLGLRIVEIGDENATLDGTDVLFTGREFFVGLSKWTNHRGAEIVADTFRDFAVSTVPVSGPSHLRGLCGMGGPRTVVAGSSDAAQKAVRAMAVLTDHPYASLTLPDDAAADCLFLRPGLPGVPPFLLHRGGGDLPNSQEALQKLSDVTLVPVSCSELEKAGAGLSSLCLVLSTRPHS
Chain of UniProt P00966 (P00966 whole entry): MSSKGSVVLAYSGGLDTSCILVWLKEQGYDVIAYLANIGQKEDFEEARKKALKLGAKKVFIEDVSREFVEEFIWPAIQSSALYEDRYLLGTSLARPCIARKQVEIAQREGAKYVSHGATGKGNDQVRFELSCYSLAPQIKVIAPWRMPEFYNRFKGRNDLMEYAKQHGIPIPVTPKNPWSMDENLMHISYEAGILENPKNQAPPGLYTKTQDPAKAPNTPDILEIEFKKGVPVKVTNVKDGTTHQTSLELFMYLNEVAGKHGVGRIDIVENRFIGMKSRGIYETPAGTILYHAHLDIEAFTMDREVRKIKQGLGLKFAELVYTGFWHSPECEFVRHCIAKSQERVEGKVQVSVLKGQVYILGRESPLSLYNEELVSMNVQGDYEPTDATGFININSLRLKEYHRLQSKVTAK
Chain of UniProt O60832 (O60832 whole entry): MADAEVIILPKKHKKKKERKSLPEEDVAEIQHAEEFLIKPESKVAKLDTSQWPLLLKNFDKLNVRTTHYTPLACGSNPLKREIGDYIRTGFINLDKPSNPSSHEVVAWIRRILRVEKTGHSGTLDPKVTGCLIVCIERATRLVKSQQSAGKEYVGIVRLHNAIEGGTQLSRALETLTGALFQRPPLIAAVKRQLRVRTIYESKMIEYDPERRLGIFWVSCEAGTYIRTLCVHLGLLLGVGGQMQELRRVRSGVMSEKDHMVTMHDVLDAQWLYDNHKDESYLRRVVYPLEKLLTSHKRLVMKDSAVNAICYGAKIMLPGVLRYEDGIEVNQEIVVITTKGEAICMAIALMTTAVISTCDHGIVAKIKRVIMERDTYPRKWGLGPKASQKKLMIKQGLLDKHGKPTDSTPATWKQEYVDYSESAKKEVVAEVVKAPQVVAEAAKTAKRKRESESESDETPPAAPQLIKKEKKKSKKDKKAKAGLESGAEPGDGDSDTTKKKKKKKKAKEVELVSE
Chain of UniProt Q86W92 (Q86W92 whole entry): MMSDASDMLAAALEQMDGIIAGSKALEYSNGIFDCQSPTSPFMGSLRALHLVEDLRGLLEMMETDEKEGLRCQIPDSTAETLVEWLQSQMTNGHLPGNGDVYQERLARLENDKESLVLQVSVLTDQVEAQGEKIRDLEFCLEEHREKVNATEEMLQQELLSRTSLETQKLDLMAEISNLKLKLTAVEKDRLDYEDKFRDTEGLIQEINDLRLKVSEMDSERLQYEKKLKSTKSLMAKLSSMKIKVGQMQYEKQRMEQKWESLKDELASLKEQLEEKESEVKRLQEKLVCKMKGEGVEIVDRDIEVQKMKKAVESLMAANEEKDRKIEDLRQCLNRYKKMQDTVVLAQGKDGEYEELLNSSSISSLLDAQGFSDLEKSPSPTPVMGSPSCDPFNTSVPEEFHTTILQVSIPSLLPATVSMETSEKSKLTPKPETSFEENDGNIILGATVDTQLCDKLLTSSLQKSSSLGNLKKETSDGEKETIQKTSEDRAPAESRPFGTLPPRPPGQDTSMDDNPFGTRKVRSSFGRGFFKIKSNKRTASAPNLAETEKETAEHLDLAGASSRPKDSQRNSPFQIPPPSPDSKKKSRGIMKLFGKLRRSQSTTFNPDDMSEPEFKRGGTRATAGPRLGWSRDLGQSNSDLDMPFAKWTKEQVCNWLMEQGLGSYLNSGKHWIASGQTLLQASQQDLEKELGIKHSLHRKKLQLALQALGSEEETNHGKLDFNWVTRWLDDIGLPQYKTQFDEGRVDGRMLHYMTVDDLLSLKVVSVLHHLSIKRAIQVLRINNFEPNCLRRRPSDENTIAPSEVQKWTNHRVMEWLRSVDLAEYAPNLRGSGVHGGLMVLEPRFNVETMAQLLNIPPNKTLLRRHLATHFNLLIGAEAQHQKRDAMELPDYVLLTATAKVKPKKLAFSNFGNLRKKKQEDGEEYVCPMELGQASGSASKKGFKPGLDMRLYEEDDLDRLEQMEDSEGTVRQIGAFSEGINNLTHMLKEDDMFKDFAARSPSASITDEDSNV
Chain of UniProt O95831 (O95831 whole entry): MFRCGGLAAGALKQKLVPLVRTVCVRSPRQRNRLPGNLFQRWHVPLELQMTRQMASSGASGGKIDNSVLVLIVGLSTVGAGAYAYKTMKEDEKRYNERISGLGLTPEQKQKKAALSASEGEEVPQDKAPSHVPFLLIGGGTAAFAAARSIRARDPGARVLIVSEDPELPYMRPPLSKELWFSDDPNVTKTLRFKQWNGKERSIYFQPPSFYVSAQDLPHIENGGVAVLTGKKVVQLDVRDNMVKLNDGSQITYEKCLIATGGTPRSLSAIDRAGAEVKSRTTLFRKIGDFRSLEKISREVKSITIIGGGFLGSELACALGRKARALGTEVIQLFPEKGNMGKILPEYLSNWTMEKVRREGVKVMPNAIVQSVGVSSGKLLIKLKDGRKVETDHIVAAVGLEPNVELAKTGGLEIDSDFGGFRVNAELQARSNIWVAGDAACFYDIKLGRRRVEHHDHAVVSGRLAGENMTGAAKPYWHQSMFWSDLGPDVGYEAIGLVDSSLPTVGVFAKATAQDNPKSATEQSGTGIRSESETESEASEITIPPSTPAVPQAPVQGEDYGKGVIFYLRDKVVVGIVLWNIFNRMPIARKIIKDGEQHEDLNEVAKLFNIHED
Chain of UniProt Q8TF42 (Q8TF42 whole entry): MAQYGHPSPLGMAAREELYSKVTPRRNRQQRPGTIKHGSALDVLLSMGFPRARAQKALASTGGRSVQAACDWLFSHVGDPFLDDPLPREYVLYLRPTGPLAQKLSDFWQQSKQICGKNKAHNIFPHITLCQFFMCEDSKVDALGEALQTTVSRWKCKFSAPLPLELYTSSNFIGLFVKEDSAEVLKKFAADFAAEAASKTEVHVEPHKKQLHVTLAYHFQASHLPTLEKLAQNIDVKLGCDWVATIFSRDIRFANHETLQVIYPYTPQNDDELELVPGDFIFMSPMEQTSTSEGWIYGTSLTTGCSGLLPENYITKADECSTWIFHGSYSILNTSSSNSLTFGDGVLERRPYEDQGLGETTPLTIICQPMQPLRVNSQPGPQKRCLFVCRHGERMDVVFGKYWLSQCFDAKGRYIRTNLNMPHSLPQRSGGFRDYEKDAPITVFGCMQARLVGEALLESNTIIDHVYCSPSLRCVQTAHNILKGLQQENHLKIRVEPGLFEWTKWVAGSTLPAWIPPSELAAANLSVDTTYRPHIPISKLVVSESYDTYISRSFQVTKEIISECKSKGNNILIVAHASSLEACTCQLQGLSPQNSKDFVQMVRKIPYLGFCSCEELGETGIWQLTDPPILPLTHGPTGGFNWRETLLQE
Chain of UniProt O14579 (O14579 whole entry): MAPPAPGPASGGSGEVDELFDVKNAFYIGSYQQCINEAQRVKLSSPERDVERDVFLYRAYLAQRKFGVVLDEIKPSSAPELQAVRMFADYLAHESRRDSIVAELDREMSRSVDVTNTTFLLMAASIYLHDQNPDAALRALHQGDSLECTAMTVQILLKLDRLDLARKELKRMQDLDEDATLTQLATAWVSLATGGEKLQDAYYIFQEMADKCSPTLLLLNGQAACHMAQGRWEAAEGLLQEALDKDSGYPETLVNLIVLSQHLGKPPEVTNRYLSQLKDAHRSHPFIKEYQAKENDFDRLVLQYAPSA
Chain of UniProt P51452 (P51452 whole entry, looked up): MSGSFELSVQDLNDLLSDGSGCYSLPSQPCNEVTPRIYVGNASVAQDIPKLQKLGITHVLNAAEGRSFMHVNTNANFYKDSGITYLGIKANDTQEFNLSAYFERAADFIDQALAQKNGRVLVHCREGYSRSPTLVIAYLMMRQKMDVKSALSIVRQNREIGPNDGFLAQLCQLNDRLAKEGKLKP
Chain of UniProt O75817 (O75817 whole entry): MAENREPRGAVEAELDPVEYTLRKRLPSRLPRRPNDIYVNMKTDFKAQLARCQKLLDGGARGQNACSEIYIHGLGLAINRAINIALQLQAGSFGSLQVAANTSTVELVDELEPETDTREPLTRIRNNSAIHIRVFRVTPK

Row | Target | thermal stability z-score (lipoamide; [1]) | thermal stability z-score (lipoamide; arsenate co-treatment: none) | thermal stability z-score (potassium arsenate)
1 | GYG1 (UniProt P46976) | -0.215 | 0.14 | -0.536
2 | DKC1 (UniProt O60832) | 0.735 | 0.39 | 0.437
3 | CHMP4C (UniProt Q96CF2) | -0.0236 | -0.694 | -0.789
4 | ASS1 (UniProt P00966) | -0.416 | 0.107 | -1.34
5 | DDAH2 (UniProt O95865) | 0.838 | 0.743 | 0.22
6 | EXTL2 (UniProt Q9UBQ6) | 1.05 | 0.893 | 0.453
7 | UBASH3B (UniProt Q8TF42) | -0.0394 | -0.103 | -0.165
8 | COPE (UniProt O14579) | 0.165 | 0.681 | 0.0279
9 | PIP4K2C (UniProt Q8TBX8) | 0.0507 | 0.12 | 1.78
10 | DUSP3 (UniProt P51452) | 0.504 | 0.265 | -0.191
11 | HNRNPF (UniProt P52597) | -0.401 | -0.136 | -0.208
12 | POP7 (UniProt O75817) | -0.211 | 0.214 | 0.592
13 | HNRNPA3 (UniProt P51991) | 0.238 | 0.437 | -0.49
14 | COG4 (UniProt Q9H9E3) | -0.919 | -1.44 | -0.419
15 | ZSWIM8 (UniProt A7E2V4) | 0.028 | 0.0796 | -0.0789
16 | TM7SF3 (UniProt Q9NS93) | -0.0176 | -0.523 | 0.533
17 | MFSD4B (UniProt Q5TF39) | -0.227 | 0.265 | -0.129
18 | HDLBP (UniProt Q00341) | -0.35 | 0.231 | -0.295

Row | Target | thermal stability z-score (lipoamide; [1]) | thermal stability z-score (lipoamide; arsenate co-treatment: none) | thermal stability z-score (potassium arsenate)
19 | UVRAG (UniProt Q9P2Y5) | -0.0868 | -0.247 | -0.352
20 | IKBKB (UniProt O14920) | -0.0799 | -0.108 | -0.426
21 | COPB1 (UniProt P53618) | 0.189 | 0.0616 | 0.367
22 | NAT10 (UniProt Q9H0A0) | 0.444 | -0.105 | -0.812
23 | NPEPL1 (UniProt Q8NDH3) | -0.24 | -0.808 | 1.2
24 | EMC10 (UniProt Q5UCC4) | -0.0818 | -0.577 | 0.0739
25 | HYI (UniProt Q5T013) | 1.85 | 0.651 | 0.524
26 | ADD3 (UniProt Q9UEY8) | -0.112 | 0.162 | -0.362
27 | HDAC1 (UniProt Q13547) |  | 3.56 | -0.601
28 | NDRG1 (UniProt Q92597) | -0.311 | -0.62 | -1.31
29 | PAK4 (UniProt O96013) | -0.224 | -0.347 | -0.347
30 | EDEM2 (UniProt Q9BV94) | 0.18 | 0.234 | 0.127
31 | AIFM1 (UniProt O95831) | -0.464 | -0.558 | 0.186
32 | CADM1 (UniProt Q9BY67) | 0.995 | 0.905 | 0.376
33 | PPFIBP1 (UniProt Q86W92) | -0.215 | 0.229 | 0.32
34 | MPP6 | -0.288 | -0.0854 | -0.29
35 | TSR1 (UniProt Q2NL82) | -0.39 | 0.00573 | 0.334
36 | MISP (UniProt Q8IVT2) | 0.196 | 0.386 | -0.461
